# From patent publication US9745339B2 (GRAFFINITY PHARMACEUTICALS GMBH, priority 2012, dated 2017)
# Experiments:
# Palivizumab = test: Microtiter plate chromatography of resins: binding and elution of Palivizumab; settings: fraction of injected protein bound; 0.5 mg/ml IgG in PBS pH 7.3
# Experimental: (§1) Resins were assessed in packed mode by microtiter plate chromatography. For each column, approximately 30 μl of resin were transferred to a 384-well filter plate and sealed with appropriate top fits. Columns with rProtein A SEPHAROSE 4 FF and MABSORBENT A2P HF were included as controls.
# (§2) Either 3.3 cv of whole IgGs dissolved at 0.5 mg ml^−1 in PBS or undiluted host cell proteins (HCP) were injected onto columns.
# (§3) Unbound protein was washed from columns with 5 cv of PBS prior to elution with 5 cv of glycine buffer at pH 2.5. […] During injection of samples, speed was reduced to 10 g and centrifugation time increased to 5-10 min. Effluent fractions were collected in 384-well plates and concentrations of protein were analyzed by Bradford assay. Protein masses mi, mft and me (see below) were calculated as the product of fraction volume and measured protein concentration.
# (§4) The fraction of bound protein was calculated as the difference between the total mass of protein injected mi and the mass of protein detected in the flowthrough mft, divided by the total mass of protein injected.
# (§5) The yield of protein was calculated as the mass of protein eluted me, divided by the mass of protein injected mi.
# (§6) The fraction of bound protein and the yield of protein were calculated for each resin based on data for whole IgG-antibodies. In the case of host cell proteins, only the fraction of bound protein is given. Selectivity of resins was calculated from data for Bevacizumab whole IgG and host cell proteins. Due to limited experimental precision, selectivity was truncated for values beyond 10.
# Bevacizumab [1] = test: Microtiter plate chromatography of resins: binding and elution of Bevacizumab; settings: fraction of bound Bevacizumab divided by fraction of bound HCP; truncated for values beyond 10
# Experimental: as §1, §2, §3, §4, §5
# (§7) The selectivity of resins was calculated as the fraction of bound Bevacizumab antibody BAb, divided by the fraction of bound host cell proteins BHCP.
# as §6
# Bevacizumab [2] = molecular target: T1, Bevacizumab (Homo sapiens, UniProt P01857); test: as above; settings: for Bevacizumab Bound: fraction of injected protein bound, 0.5 mg/ml IgG in PBS pH 7.3, ligand immobilized on SEPHAROSE 4 FF; for Bevacizumab Yield: mass eluted (glycine pH 2.5) / mass injected
# T1 construct: 0.5 mg/ml IgG in PBS pH 7.3; ligand immobilized on SEPHAR; Bevacizumab Yield; other: mass eluted (glycine pH 2.5) / mass injected; kd (dissociation constant, Langmuir isotherm); other: Bevacizumab 0.05-5 mg/ml in PBS pH 7.3, 25° C., at least 3 h; qm (maximum capacity); other: mg Bevacizumab per ml of resin; Langmuir isotherm; t0; fused on or other part: Humanized anti-VEGF-A VH domain joined N-terminally to the IGHG1 constant region (engineered, no UniProt entry)
# Experimental: as §1, §2, §3, §4, §5, §7, §6
# Cetuximab = test: Microtiter plate chromatography of resins: binding and elution of Cetuximab; settings: fraction of injected protein bound; 0.5 mg/ml IgG in PBS pH 7.3
# Experimental: as §1, §2, §3, §4, §5, §6
# host cell proteins (HCP) = test: Microtiter plate chromatography of resins: binding of host cell proteins; set-up: species or system CHO cell culture; settings: fraction of injected undiluted host cell proteins bound
# Experimental: Flowthrough from protein A chromatography (referred to as host cell proteins) was derived from the supernatant of antibody-producing CHO cell culture in serum-free medium. Coomassie brilliant blue dye reagent for Bradford assay was purchased from Thermo Scientific (Bonn/Germany).
# as §1, §2, §3, §4, §6
# [3] = test system: poly-IgG from human serum (h-poly-IgG); test: Microtiter plate chromatography of resins: binding and elution of human poly-IgG; settings: fraction of injected protein bound; 0.5 mg/ml IgG in PBS pH 7.3
# Experimental: as §1, §2, §3, §4, §5, §6
# Tocilizumab = test: Microtiter plate chromatography of resins: binding and elution of Tocilizumab; settings: fraction of injected protein bound; 0.5 mg/ml IgG in PBS pH 7.3
# Experimental: as §1, §2, §3, §4, §5, §6
Compound,Palivizumab Bound (Palivizumab),Selectivity (Bevacizumab [1]),Bevacizumab Bound (Bevacizumab [2]),Bevacizumab Yield (Bevacizumab [2]),Cetuximab Bound (Cetuximab),HCP Bound (host cell proteins (HCP)),h-poly-IgG Bound [3],Tocilizumab Bound (Tocilizumab)
"Cc1ccc(NC(=O)c2ccc3c(c2)ncn3CCCN)nn1 [Ligand L34, 1-(3-Amino-1-propyl)benzimidazole-5-carboxylic acid N-(6-methylpyridazin-3-yl) amide]",78%,10.0,100%,104%,100%,10%,78%,85%
"NCCCOc1ccc(C(=O)Nc2nnc(-c3ccco3)s2)cc1 [Ligand L20, 4-[(1-Amino-3-propyl)oxy]benzoic acid N-[5-(2-furyl)-1,3,4-thiadiazol-2-yl] amide]",100%,2.9,100%,100%,100%,35%,100%,100%
"NCCCn1c(=O)c(=O)[nH]c2cc(C(=O)Nc3nnc(-c4ccco4)s3)ccc21 [Ligand L28, 1-(3-Amino-1-propyl)-2,3-dioxo-1,2,3,4-tetrahydroquinoxaline-6-carboxylic acid N-[5-(2-furyl)-1,3,4-thiadiazol-2-yl]amide]",58%,8.3,100%,95%,89%,12%,63%,98%
"NCCCn1cnc2cc(C(=O)Nc3nc4ccccc4s3)ccc21 [Ligand L10, 1-(3-Amino-1-propyl)benzimidazole-5-carboxylic acid N-(benzothiazol-2-yl) amide]",100%,2.2,100%,100%,100%,45%,100%,100%
"Cc1cc(NC(=O)c2ccc3c(c2)ncn3CCCN)nn1-c1ccccc1 [Ligand L11, 1-(3-Amino-1-propyl)benzimidazole-5-carboxylic acid N-(5-methyl-1-phenylpyrazol-3-yl) amide]",61%,2.0,100%,99%,98%,51%,88%,96%
"NCCCOc1ccc(C(=O)Nc2nc(-c3ccccn3)cs2)cc1 [Ligand L38, 4-[(1-Amino-3-propyl)oxy]benzoic acid N-[4-(2-pyridyl)thiazol-2-yl] amide]",95%,2.9,100%,106%,100%,35%,99%,99%
"NCCCn1cnc2cc(C(=O)Nc3nc(-c4ccccc4)ns3)ccc21 [Ligand L22, 1-(3-Amino-1-propyl)benzimidazole-5-carboxylic acid N-(3-phenyl-1,2,4-thiadiazol-5-yl) amide]",100%,3.3,100%,104%,100%,30%,100%,100%
"NCCCn1cnc2cc(C(=O)Nc3nnc(-c4ccc5c(c4)OCO5)s3)ccc21 [Ligand L09, 1-(3-Amino-1-propyl)benzimidazole-5-carboxylic acid N-[2-(3,4-methylenedioxyphenyl)-1,3,4-thiadiazol-5-yl] amide]",100%,2.6,100%,97%,100%,39%,100%,100%
"NCCCn1cnc2cc(C(=O)Nc3nnc(C4CC4)s3)ccc21 [Ligand L35, 1-(3-Amino-1-propyl)benzimidazole-5-carboxylic acid N-(2-cyclopropyl-1,3,4-thiadiazol-5-yl) amide]",100%,3.4,100%,104%,100%,29%,100%,100%
"NCCCn1cnc2cc(C(=O)Nc3nc4c(s3)CCC4)ccc21 [Ligand L32, 1-(3-Amino-1-propyl)benzimidazole-5-carboxylic acid N-(5,6-dihydro-(4H)-cyclopentathiazol-2-yl) amide]",91%,2.3,100%,103%,100%,44%,91%,100%
"NCCOCCOc1ccc(C(=O)Nc2nnc(-c3ccco3)s2)cc1 [Ligand L37, 4-(5-Amino-3-oxa-1-pentyloxy)benzoic acid N-[5-(2-furyl)-1,3,4-thiadiazol-2-yl] amide]",100%,4.0,100%,87%,100%,25%,100%,100%
"Cc1csc(NC(=O)c2ccc3c(c2)ncn3CCCN)n1 [Ligand L15, 1-(3-Amino-1-propyl)benzimidazole-5-carboxylic acid N-(4-methylthiazol-2-yl) amide]",100%,2.6,100%,91%,100%,39%,100%,100%
"Cc1cnc(NC(=O)c2ccc3c(c2)ncn3CCCN)s1 [Ligand L17, 1-(3-Amino-1-propyl)benzimidazole-5-carboxylic acid N-(5-methylthiazol-2-yl) amide]",88%,2.9,100%,100%,100%,34%,89%,100%
"NCCCn1cnc2cc(C(=O)Nc3nnc(-c4ccccc4)s3)ccc21 [Ligand L33, 1-(3-Amino-1-propyl)benzimidazole-5-carboxylic acid N-(2-phenyl-1,3,4-thiadiazol-5-yl) amide]",100%,2.9,100%,105%,100%,34%,100%,100%
